According to patent publication US9102638B2, “Amidobenzothiazoles and process for the preparation thereof” (COUNCIL OF SCIENTIFIC & INDUSTRIAL RESEARCH, priority 2011, dated 2015):

Key:
Type in all cases: cell-based
SN12C = test: In vitro cytotoxicity, NCI screen: SN12C (Renal); settings: Homo sapiens, Renal panel, NCI protocol, read-out: GI50 values (μM conc.)
Protocol: (§1) The in vitro anticancer activity studies for these amidobenzothiazoles were carried out at the National Cancer Institute, Maryland, USA.
(§2) The amidobenzothiazoles have been tested against sixty human tumor cell lines derived from nine cancer types (leukemia cancer cell line, non-small cell lung cancer cell line, colon cancer cell line, CNS cancer cell line, melanoma cancer cell line, ovarian cancer cell line, renal cancer cell line, prostate cancer cell line and breast cancer cell lines). For these compounds results are expressed in GI50 values of that particular cancer cell at micro molar (μM) concentration as per NCI protocol.

[1] = test system: leukemia cancer cell lines; test: In vitro activity against leukemia cancer cell lines (panel range); settings: Homo sapiens, read-out: GI50 values, range over the listed compounds and the panel
Protocol: as §1, §2

MDA-MB-468 = test: In vitro cytotoxicity, NCI screen: MDA-MB-468 (Breast); settings: Homo sapiens, read-out: GI50 values (μM conc.)
Protocol: as §1, §2

SF-539 = test: In vitro cytotoxicity, NCI screen: SF-539 (CNS); settings: Homo sapiens, read-out: GI50 values (μM conc.)
Protocol: as §1, §2

SK-MEL-2 = test: In vitro cytotoxicity, NCI screen: SK-MEL-2 (Melanoma); settings: Homo sapiens; SK-MEL-2, Melanoma panel, NCI protocol; read-out: GI50 values (μM conc.)
Protocol: as §1, §2

SR = test: In vitro cytotoxicity, NCI screen: SR (Leukemia); settings: Homo sapiens, Leukemia panel, NCI protocol, read-out: GI50 values (μM conc.)
Protocol: as §1, §2

U251 = test: In vitro cytotoxicity, NCI screen: U251 (CNS); settings: Homo sapiens, U-251; U251, CNS panel, NCI protocol; read-out: GI50 values (μM conc.)
Protocol: as §1, §2

HT29 = test: In vitro cytotoxicity, NCI screen: HT29 (Colon); settings: Homo sapiens, HT-29; HT29, Colon panel, NCI protocol; read-out: GI50 values (μM conc.)
Protocol: as §1, §2

RPMI-8226 = test: In vitro cytotoxicity, NCI screen: RPMI-8226 (Leukemia); settings: Homo sapiens; RPMI-8226, Leukemia panel, NCI protocol; read-out: GI50 values (μM conc.)
Protocol: as §1, §2

MALME-3M = test: In vitro cytotoxicity, NCI screen: MALME-3M (Melanoma); settings: Homo sapiens, Melanoma panel, NCI protocol, read-out: GI50 values (μM conc.)
Protocol: as §1, §2

HCT-15 = test: In vitro cytotoxicity, NCI screen: HCT-15 (Colon); settings: Homo sapiens; HCT-15, Colon panel, NCI protocol; read-out: GI50 values (μM conc.)
Protocol: as §1, §2

RXF 393 = test: In vitro cytotoxicity, NCI screen: RXF 393 (Renal); settings: Homo sapiens; RXF 393, Renal panel, NCI protocol; read-out: GI50 values (μM conc.)
Protocol: as §1, §2

SF-268 = test: In vitro cytotoxicity, NCI screen: SF-268 (CNS); settings: Homo sapiens, read-out: GI50 values (μM conc.)
Protocol: as §1, §2

NCI-H522 = test: In vitro cytotoxicity, NCI screen: NCI-H522 (Non-small cell lung); settings: Homo sapiens; NCI-H522, Non-small cell lung panel, NCI protocol; read-out: GI50 values (μM conc.)
Protocol: as §1, §2

ACHN = test: In vitro cytotoxicity, NCI screen: ACHN (Renal); settings: Homo sapiens, Renal panel, NCI protocol, read-out: GI50 values (μM conc.)
Protocol: as §1, §2

CAKI-1 = test: In vitro cytotoxicity, NCI screen: CAKI-1 (Renal); settings: Homo sapiens; CAKI-1, Renal panel, NCI protocol; read-out: GI50 values (μM conc.)
Protocol: as §1, §2

CCRF-CEM = test: In vitro cytotoxicity, NCI sixty cell line screen: CCRF-CEM (Leukemia); settings: Homo sapiens, Leukemia panel, NCI protocol, read-out: GI50 values (μM conc.)
Protocol: as §1, §2

M14 = test: In vitro cytotoxicity, NCI screen: M14 (Melanoma); settings: Homo sapiens; M14, Melanoma panel, NCI protocol; read-out: GI50 values (μM conc.)
Protocol: as §1, §2

OVCAR-3 = test: In vitro cytotoxicity, NCI screen: OVCAR-3 (Ovarian); settings: Homo sapiens; OVCAR-3, Ovarian panel, NCI protocol; read-out: GI50 values (μM conc.)
Protocol: as §1, §2

NCI-H460 = test: In vitro cytotoxicity, NCI screen: NCI-H460 (Non-small cell lung); settings: Homo sapiens; NCI-H460, Non-small cell lung panel, NCI protocol; read-out: GI50 values (μM conc.)
Protocol: as §1, §2

SF-295 = test: In vitro cytotoxicity, NCI screen: SF-295 (CNS); settings: Homo sapiens; SF-295, CNS panel, NCI protocol; read-out: GI50 values (μM conc.)
Protocol: as §1, §2

MOLT-4 = test: In vitro cytotoxicity, NCI screen: MOLT-4 (Leukemia); settings: Homo sapiens; MOLT-4, Leukemia panel, NCI protocol; read-out: GI50 values (μM conc.)
Protocol: as §1, §2

PC-3 = test: In vitro cytotoxicity, NCI screen: PC-3 (Prostate); settings: Homo sapiens; PC-3, Prostate panel, NCI protocol; read-out: GI50 values (μM conc.)
Protocol: as §1, §2

OVCAR-8 = test: In vitro cytotoxicity, NCI screen: OVCAR-8 (Ovarian); settings: Homo sapiens; OVCAR-8, Ovarian panel, NCI protocol; read-out: GI50 values (μM conc.)
Protocol: as §1, §2

HCT-116 = test: In vitro cytotoxicity, NCI screen: HCT-116 (Colon); settings: Homo sapiens, read-out: GI50 values (μM conc.)
Protocol: as §1, §2

CNS cancer cell lines = test: In vitro activity against CNS cancer cell lines (panel range); settings: Homo sapiens, read-out: GI50 values, range over the listed compounds and the panel
Protocol: as §1, §2

A498 = test: In vitro cytotoxicity, NCI screen: A498 (Renal); settings: Homo sapiens; A498, Renal panel, NCI protocol; read-out: GI50 values (μM conc.)
Protocol: as §1, §2

NCI-H23 = test: In vitro cytotoxicity, NCI screen: NCI-H23 (Non-small cell lung); settings: Homo sapiens; NCI-H23, Non-small cell lung panel, NCI protocol; read-out: GI50 values (μM conc.)
Protocol: as §1, §2

MDA-MB-231/ATCC = test: In vitro cytotoxicity, NCI screen: MDA-MB-231/ATCC (Breast); settings: Homo sapiens, Breast panel, NCI protocol, read-out: GI50 values (μM conc.)
Protocol: as §1, §2

EKVX = test: In vitro cytotoxicity, NCI screen: EKVX (Non-small cell lung); settings: Homo sapiens, Non-small cell lung panel, NCI protocol, read-out: GI50 values (μM conc.)
Protocol: as §1, §2

HOP-92 = test: In vitro cytotoxicity, NCI screen: HOP-92 (Non-small cell lung); settings: Homo sapiens; HOP-92, Non-small cell lung panel, NCI protocol; read-out: GI50 values (μM conc.)
Protocol: as §1, §2

HOP-62 = test: In vitro cytotoxicity, NCI screen: HOP-62 (Non-small cell lung); settings: Homo sapiens; HOP-62, Non-small cell lung panel, NCI protocol; read-out: GI50 values (μM conc.)
Protocol: as §1, §2

SNB-19 = test: In vitro cytotoxicity, NCI screen: SNB-19 (CNS); settings: Homo sapiens; SNB-19, CNS panel, NCI protocol; read-out: GI50 values (μM conc.)
Protocol: as §1, §2

Structure (SMILES)	GI50 (SN12C) [µM]	GI50 [1] [µM]	GI50 (MDA-MB-468) [µM]	GI50 (SF-539) [µM]	GI50 (U251) [µM]	GI50 (RPMI-8226) [µM]	GI50 (HCT-15) [µM]	GI50 (RXF 393) [µM]	GI50 (SF-268) [µM]	GI50 (NCI-H522) [µM]	GI50 (ACHN) [µM]	GI50 (CAKI-1) [µM]	GI50 (OVCAR-3) [µM]	GI50 (SF-295) [µM]	GI50 (PC-3) [µM]	GI50 (OVCAR-8) [µM]	GI50 (HCT-116) [µM]	GI50 (CNS cancer cell lines) [µM]	GI50 (A498) [µM]	GI50 (NCI-H23) [µM]	also measured
COc1ccc(/C=C\c2cc(OC)c(OC)c(OC)c2)cc1OCC(=O)Nc1nc2ccccc2s1 [Compound 8a, N1-(1,3-benzothiazol-2-yl)-2-{2-methoxy-5-[(Z)-2-(3,4,5-trimethoxyphenyl)-1-ethenyl]phenoxy}acetamide]	0.37	0.037 to 29.9	0.1	0.045	0.048	0.15	0.048	0.05	0.18	0.079	0.093	0.41	0.043	0.22	0.18	0.25	0.046	0.045 to 18.8	0.36	0.11	GI50 (SK-MEL-2): 0.18 µM; GI50 (SR): 0.037 µM; GI50 (HT29): 3.16 µM; GI50 (MALME-3M): 1.99 µM; GI50 (CCRF-CEM): 0.078 µM; GI50 (M14): 0.072 µM; GI50 (NCI-H460): 0.052 µM; GI50 (MOLT-4): 0.34 µM; GI50 (MDA-MB-231/ATCC): 0.19 µM; GI50 (EKVX): 0.038 µM; GI50 (HOP-92): 0.039 µM
COc1ccc(/C=C\c2cc(OC)c(OC)c(OC)c2)cc1OCC(=O)Nc1nc2ccc(F)cc2s1 [Compound 8e, N1-(6-fluoro-1,3-benzothiazol-2-yl)-2-{2-methoxy-5-[(Z)-2-(3,4,5-trimethoxyphenyl)-1-ethenyl]phenoxy}acetamide]	4.61	0.037 to 29.9	3.68	4.51	4.33	6.36	8.19	6.29	7.23	2.92	3.33	2.78	9.99	4.29	6.74	7.15	4.48	0.045 to 18.8	6.25	4.26	GI50 (HOP-62): 5.7 µM; GI50 (SK-MEL-2): 8.46 µM; GI50 (SR): 2.19 µM; GI50 (HT29): 9.63 µM; GI50 (MALME-3M): 5.22 µM; GI50 (SNB-19): > 100 µM; GI50 (CCRF-CEM): 3.7 µM; GI50 (M14): 6.82 µM; GI50 (NCI-H460): 4.36 µM; GI50 (MOLT-4): 3.07 µM; GI50 (MDA-MB-231/ATCC): 9.34 µM; GI50 (EKVX): 5.72 µM; GI50 (HOP-92): 5.73 µM
COc1ccc2nc(NC(=O)COc3cc(/C=C\c4cc(OC)c(OC)c(OC)c4)ccc3OC)sc2c1 [Compound 8g, N1-(6-methoxy-1,3-benzothiazol-2-yl)-2-{2-methoxy-5-[(Z)-2-(3,4,5-trimethoxyphenyl)-1-ethenyl]phenoxy}acetamide]	5.75	0.037 to 29.9	2.29	2.84	4	5.43	2.89	2.5	4.31	3.09	7.77	3.2	2.17	1.84	4.45	5.28	3.7	0.045 to 18.8	3.5	3.91	GI50 (HOP-62): 23 µM; GI50 (SK-MEL-2): 4.07 µM; GI50 (SR): 3.69 µM; GI50 (HT29): 3.34 µM; GI50 (MALME-3M): > 100 µM; GI50 (SNB-19): 6.3 µM; GI50 (CCRF-CEM): 3.87 µM; GI50 (M14): 4.33 µM; GI50 (NCI-H460): 3.73 µM; GI50 (MOLT-4): 3.87 µM; GI50 (MDA-MB-231/ATCC): 5.4 µM; GI50 (EKVX): 5.11 µM; GI50 (HOP-92): 6.28 µM
COc1ccc(/C=C\c2cc(OC)c(OC)c(OC)c2)cc1OCC(=O)Nc1nc2ccc(OC(F)(F)F)cc2s1 [Compound 8j, N1-(6-(trifluoromethoxy)-1,3-benzothiazol-2-yl)-2-{2-methoxy-5-[(Z)-2-(3,4,5-trimethoxyphenyl)-1-ethenyl]phenoxy}acetamide]	6.42	0.037 to 29.9	2.3	2.28	3.37	5.83	3.23	2.65	6.01	3.16	8.31	4.6	3.37	3.7	5.12	5	3.92	0.045 to 18.8	3.61	4.39	GI50 (HOP-62): 7.09 µM; GI50 (SK-MEL-2): 3.29 µM; GI50 (SR): 3.55 µM; GI50 (HT29): > 100 µM; GI50 (SNB-19): 7.08 µM; GI50 (CCRF-CEM): 4.12 µM; GI50 (M14): 4.36 µM; GI50 (NCI-H460): 4.11 µM; GI50 (MOLT-4): 4.21 µM; GI50 (MDA-MB-231/ATCC): 5.16 µM; GI50 (EKVX): 7.89 µM; GI50 (HOP-92): 2.74 µM
COc1ccc(C2CC(c3cc(OC)c(OC)c(OC)c3)=NN2C(C)=O)cc1OCC(=O)Nc1nc2ccc(C(F)(F)F)cc2s1 (centres unmarked) [Compound 10i, N1-(6-(trifluoromethyl)-1,3-benzothiazol-2-yl)-2-{5-[1-acetyl-3-(3,4,5-trimethoxyphenyl)-4,5-dihydro-1H-5-pyrazolyl]-2-methoxyphenoxy}acetamide]	3.31	0.037 to 29.9	6.12	1.75	3.08	2.21	9.26	2.09	3.84	2.71	2.48	2.17	1.84	3.06	2.92	3.36	2.39	0.045 to 18.8	2.78	3.76	GI50 (HOP-62): 2.2 µM; GI50 (MALME-3M): 6.44 µM; GI50 (SNB-19): 11 µM; GI50 (MDA-MB-231/ATCC): 3.11 µM; GI50 (EKVX): 4.1 µM; GI50 (HOP-92): 1.7 µM
